Source: US6503721B2, “Screen for compounds with affinity for nucleic acids” (Anadys Pharmaceuticals, Inc., priority 1995, dated 2003)
pIC50: −log10 of the molar value.

What was measured:
AB-RNA [1] = assay: Hybrid capture on streptavidin-coated paramagnetic beads (AB-RNA : biotinylated oligonucleotide RBS-96-60); assay type: binding
From the text: SA coated paramagnetic beads: The washing step required when using SA-beads can be facilitated by using paramagnetic-SA coated beads (PMP-SA). These beads are commercially available (Promega, Madison, Wis.) and can be concentrated and held by a magnet. Positioning the magnet under the plate during washing steps concentrates and retains the beads at the bottom of the well during the washing procedure thus preventing loss of beads and allowing faster operation. An example of the use of this method is described in Example 2 below. The [^32P]-labelled ATP-binding RNA described in Example 1 above (AB-RNA) was heat denatured at 90° C. for 2 min in binding buffer (50 mM Tris pH 7.5, 200 mM NaCl, and 10 mM MgCl2) and chilled on ice for 2 min. 37.5 μl aliquots of the heat denatured AB-RNA were then mixed with 12.5 μl of a solution containing 12.5 pmol of the 5′-biotinylated oligonucleotide RBS-96-60 (having a nucleotide sequence identical to RBS-87-8A described in Example 1 above) and varying amounts of ATP or UTP. After a brief incubation at room temperature, the mixture was transferred into 96-well plates containing 0.5 mg paramagnetic beads coated with streptavidin (PMP-SA) (Promega, Madison, Wis.). Plates were incubated at room temperature for 15 min to allow binding. […] [^32P]-labelled AB-RNA bound to the beads was then quantitated by Cerenkov counting in a Microbetta LSC-counter (Wallac).

AB-RNA [2] = assay: SCAN nitrocellulose filter binding assay, AB-RNA and biotinylated oligonucleotide 67B
Experimental: Adsorption to nitrocellulose filters: This embodiment takes advantage of the fact that most proteins tightly adsorb to nitrocellulose filters. When using a biotinylated oligonucleotide and a labelled target RNA, free SA or a SA derivative such as SA:alkaline phosphatase conjugate (SA:AP), SA:β-galactosidase (SA:BG), or other SA-conjugate or fusion protein, is added to the reaction to allow binding to the biotin moiety in the oligonucleotide. Subsequently, the reaction is filtered through 96-well nitrocellulose filter plates (Millipore, Bedford, Mass., HATF or NC). Labeled target RNA hybridized to the biotinylated oligonucleotide is retained in the filter through the adsorption of SA or its derivative to the filter, while unhybridized RNA passes through. […] Therefore, the use of SA fusion proteins or conjugates is preferred. An example of the use of this method is described in Example 3 below. SCAN reactions containing 100 nM radiolabeled AB-RNA and 250 nM biotinylated oligonucleotide 67B were incubated with increasing amounts of ATP or UTP as test ligands. In the absence of test ligand, 70% of AB-RNA was retained on NC-filters. Inhibition of RNA retention on NC-filters Inhibition of RNA retention on NC-filters (% inhibtion) was obtained as (1−(R/R0)×100), where R0 is retention without test ligand and R is retention with test ligand. […]

HIV RRE RNA = assay: SCAN nitrocellulose filter binding assay, RRE RNA and biotinylated complementary oligonucleotide; conditions: heterologous RNA target, FIG. 17
Experimental: Adsorption to nitrocellulose filters: This embodiment takes advantage of the fact that most proteins tightly adsorb to nitrocellulose filters. When using a biotinylated oligonucleotide and a labelled target RNA, free SA or a SA derivative such as SA:alkaline phosphatase conjugate (SA:AP), SA:β-galactosidase (SA:BG), or other SA-conjugate or fusion protein, is added to the reaction to allow binding to the biotin moiety in the oligonucleotide. Subsequently, the reaction is filtered through 96-well nitrocellulose filter plates (Millipore, Bedford, Mass., HATF or NC). Labeled target RNA hybridized to the biotinylated oligonucleotide is retained in the filter through the adsorption of SA or its derivative to the filter, while unhybridized RNA passes through. […] Therefore, the use of SA fusion proteins or conjugates is preferred. An example of the use of this method is described in Example 3 below.
The target RNA was an RNA molecule containing the binding site for the HIV Rev protein (Rev Responsive Element, RRE; 5′-GAAUACUAUGGGCGCAGCGUCAAUGACGCUGACGGUACAGGCCAGACAAUUAUUGUCUGGUAUAGU-3′- SEQ ID NO:2) which had been labelled with 32P as described in Example 1 above. […] The filtrate was further washed with 400 μl of the same buffer and the amount of RRE retained in the filter was determined by liquid scintillation counting. […]

AB RNA [3] = assay: SCAN assay under equilibrium conditions (dissociation of pre-formed AB RNA:oligonucleotide complexes); assay type: binding; conditions: 100 μM ATP, 20 nM AB RNA, 100 nM oligonucleotide
From the text: A screening assay having this configuration has the advantage of removing time constraints for various steps in the assay. In addition, thermodynamic parameters associated with ligand binding can be more easily derived from the results of the assay. Using a series of oligonucleotides of various length and target sites comprising AB RNA, a group of oligonucleotides has been identified that fully equilibrate with ATP (an example is shown in FIG. 20, top panel). The oligonucleotide used is complementary to the sequence shown in bold-faced letters (FIG. 20, top panel). Target RNA:oligonucleotide complexes were pre-formed by incubated a solution containing 100 nM AB RNA and 500 nM oligonucleotide for 2 h at 25° C. Dissociation was initiated by diluting the reaction 5-fold in the presence or absence of 100 μM ATP (resulting in final concentrations of AB RNA, 20 nM; oligonucleotide, 100 nM; ATP, 100 μM). Binding of hybrids to nitrocellulose filters was performed as described above.

AB RNA [4] = assay: UV absorbance (260 nM) thermal melting of AB RNA; assay type: binding
Experimental: The experiment described below was performed to monitor the stabilization of an RNA structure upon ligand binding. In this experiment, absorbance at 260 nm was monitored as the temperature of the sample was increased. The increase in temperature causes the RNA to unfold, thereby allowing individual bases to absorb more ultraviolet light.

AB-RNA-F = assay: Fluorescence SCAN assay, fluorescein-labelled AB-RNA-F and unlabelled oligonucleotide 67B; assay type: binding; conditions: for effect on fluorescence increase: FIG. 28B
Experimental: B. Experimental results: While developing a SCAN assay based on FET between 3′-fluorescein labeled AB-RNA (AB-RNA-F) and a 5′-rhodamine labeled oligonucleotide, it was unexpectedly observed in a control experiment that a substantial increase in fluorescein emission at 535 nm occurred upon addition of an oligonucleotide carrying no fluorescent labels (FIG. 28A). Reactions containing 50 mM Tris pH 7.5, 200 mM NaCl, 10 mM MgCl2, and 60 nM AB-RNA-F were monitored at 535 nm emission (485 nm excitation) in a CytoFluor II fluorescence multi-well plate reader (PerSeptive Biosystems, Framingham,Mass.) for increasing times after the addition of oligonucleotide 67B. Because of the high reproducibility and sensitivity of fluorescence spectrophotometers, a 2-fold increase in fluorescence represents more that sufficient change in signal to use it as a sensitive assay. Therefore, the effect of ATP, GTP and UTP was tested in SCAN reactions containing AB-RNA-F and the unlabeled oligonucleotide 67B (FIG. 28B).

AB-RNA [5] = assay: Gel shift assay: hybridization of radiolabelled AB-RNA to complementary DNA oligonucleotide RBS-87-8A; assay type: binding; conditions: 30 μM ligand
From the text: A gel shift protocol, though nominally a low-throughput method, is an important tool for the initial selection of the assay configuration for oligonucleotide-based methods to be used with each particular target RNA. Typically, the target RNA is transcribed in vitro, using as template a DNA that contains the sequence for the T7-RNA polymerase promoter followed by a region encoding the target RNA, and [^32P]-UTP to produce radiolabelled RNA. Conditions for the T7 RNA polymerase transcription reaction using oligonucleotide templates have been described by Milligan et al., Nuc. Acids Res., 15: 8783, 1987. The [^32P]-labelled target RNA is optionally heat denatured at 90° C. for 2 min and chilled on ice for 2 min, after which aliquots are incubated in the absence and presence of test ligands and increasing concentrations of a complementary oligonucleotide. The reaction mixtures are then resolved in polyacrylamide native gels containing or lacking the test ligands.
AB-RNA was transcribed using as template the DNA oligonucleotide RBS-87-8A, (5′-GGAACCTTGCCGGCACCGAAGTGCCGCAGTTTCTTCCCAAGGTTCCTATAGTGAGTCGTATTA-3′-SEQ ID NO:1), which contains the sequence for the T7-RNA polymerase promoter followed by a region encoding AB-RNA. [32P]-labelled AB-RNA was obtained by including [32P]-UTP in the transcription reaction. […]

SMILES | pIC50 (AB-RNA [1]; PMP-SA beads, room temperature, read-out: ligand concentration reducing the amount of hybrids formed by 50%) | pIC50 (AB-RNA [2]; 100 nM AB-RNA, 250 nM oligonucleotide 67B, read-out: ligand concentration inhibiting AB-RNA retention on NC-filters by 50%) | specificity factor ATP versus UTP (AB-RNA [2]; ratio of concentrations for 50% inhibition) [fold] | effect on RRE based SCAN reactions (HIV RRE RNA) | inhibition of oligo:RNA complex (AB RNA [3]) | temperature of new transition in first derivative of absorbance, seen only with ligand (AB RNA [4]; absorbance at 260 nm, FIG. 21) [°C] | effect of ligand on RNA structure (AB RNA [4]; thermal melting) | pIC50 (AB-RNA-F; 60 nM AB-RNA-F, emission 535 nm, read-out: IC50 for inhibition of fluorescence increase) | effect on fluorescence increase (AB-RNA-F) | competition with the oligonucleotide for binding to AB-RNA (AB-RNA [5]) | effect on amount of hybrids bound to PMP-SA beads (AB-RNA [1]; increasing ligand concentrations)
Nc1ncnc2c1ncn2[C@@H]1O[C@H](COP(=O)(O)OP(=O)(O)OP(=O)(O)O)[C@@H](O)[C@H]1O [ATP] | 4.60 | 2.30 | 100 | no effect | approximately 60% | 40 | stabilizes the RNA structure | 2.30 | – | – | –
Nc1nc2c(ncn2[C@@H]2O[C@H](COP(=O)(O)OP(=O)(O)OP(=O)(O)O)[C@@H](O)[C@H]2O)c(=O)[nH]1 [GTP] | – | – | – | – | – | – | – | – | no effect at all | – | –
O=c1ccn([C@@H]2O[C@H](COP(=O)(O)OP(=O)(O)OP(=O)(O)O)[C@@H](O)[C@H]2O)c(=O)[nH]1 [UTP] | – | – | – | – | – | – | – | – | some effect at much higher concentrations | unable to compete | no effect
